# Reference: patent EP0129667A1, “Compounds and pharmaceutical compositions for treatment of hypoovarianism” (Takeda Chemical Industries, Ltd., priority 1983, dated 1985)
# Legend:
# [1] = test system: young oophorectomized rats; assay: E activity-potentiating effect in young oophorectomized rats (uterine wet weight); type: in vivo, Spraque-Dawley rats; settings: 3 days; for increase of uterine weight by the compound alone: without estrone; for Uterine wet weight (mg ± S.D.): autopsy on 4th day
# Procedure: Spraque-Dawley rats, 33 days of age and 11 days after oophorectomy for elimination of endogenous E activity, were assigned to groups of 5 to 7 individuals and treated subcutaneously with solutions of esterone in sesame oil or orally with suspensions of Compound A in 1% hydroxypropylcellulose solution, either independently or in combination, for 3 days. On the 4th day, each animal was autopsied and its uterine wet weight was recorded. […] Spraque-Dawley rats, 33 days of age and 11 days after oophorectomy for elimination of endogenous E activity, were assigned to groups of 5 to 7 individuals and treated subcutaneously with solutions of esterone in sesame oil or orally with suspensions of Compound B in 1% hydroxypropylcellulose solution, either independently or in combination, for 3 days. On the 4th day, each animal was autopsied and its uterine wet weight was recorded.
# [2] = test system: ICR mice; assay: Acute toxicity in mice; type: in vivo; settings: 5-week-old ICR mice, 14 days observation, LD50 could not be calculated
# Procedure: (§1) Five-week-old ICR mice and 5-week-old Spraque-Dawley rats were used in groups of 10 males and 10 females, and suspensions of compound A or B in olive oil were administered orally [2,500, 5,000 and 10,000 mg/kg of each compound] or subcutaneously (1,250, 2,500 and 5,000 mg/kg). The animals were kept under observation for 14 days.
# [3] = test system: Spraque-Dawley rats; assay: Acute toxicity in rats; type: in vivo; settings: 5-week-old Spraque-Dawley rats, 14 days observation, LD50 could not be calculated
# Procedure: as §1
# [4] = oral 2,500, 5,000 and 10,000 mg/kg in olive oil
# [5] = subcutaneous 1,250, 2,500 and 5,000 mg/kg in olive oil
compound,measurement,setting,value
"O=c1c(-c2ccccc2)coc2cc(O)ccc12 [Compound A, 7-hydroxy-isoflavone]",potentiation of the uterine weight increasing action of estrone,[1]; Compound A at 50 and 100 mg/kg oral with estrone subcutaneous,potentiated the uterine weight increasing action of estrone
same,increase of uterine weight by the compound alone,[1]; Compound A at 50 and 100 mg/kg oral,did not cause an increase of uterine weight
same,Uterine wet weight (mg ± S.D.),"[1]; Table 1, Compound A 50 mg/kg daily oral, estrone 0",35.3 ± 1.7 mg
same,Uterine wet weight (mg ± S.D.),"[1]; Table 1, Compound A 100 mg/kg daily oral, estrone 0",35.9 ± 1.0 mg
same,Uterine wet weight (mg ± S.D.),"[1]; Table 1, estrone 1.0 µg/kg daily subcutaneous + Compound A 50 mg/kg daily oral",60.8 ± 4.1 mg
same,Uterine wet weight (mg ± S.D.),"[1]; Table 1, estrone 1.0 µg/kg daily subcutaneous + Compound A 100 mg/kg daily oral",70.6 ± 2.7 mg
"CC(C)Oc1ccc2c(=O)c(-c3ccccc3)coc2c1 [Compound B, 7-isopropyloxy-isoflavone]",potentiation of the uterine weight increasing action of estrone,[1]; Compound B at 50 and 200 mg/kg oral with estrone subcutaneous,potentiated the uterine weight increasing action of estrone
same,increase of uterine weight by the compound alone,[1]; Compound B at 50 and 200 mg/kg oral,did not cause an increase of uterine weight
same,Uterine wet weight (mg ± S.D.),"[1]; Table 2, Compound B 50 mg/kg daily oral, estrone 0",32.2 ± 1.3 mg
same,Uterine wet weight (mg ± S.D.),"[1]; Table 2, Compound B 200 mg/kg daily oral, estrone 0",34.7 ± 1.2 mg
same,Uterine wet weight (mg ± S.D.),"[1]; Table 2, estrone 0.5 µg/kg daily subcutaneous + Compound B 50 mg/kg daily oral",39.6 ± 2.4 mg
same,Uterine wet weight (mg ± S.D.),"[1]; Table 2, estrone 0.5 µg/kg daily subcutaneous + Compound B 200 mg/kg daily oral",51.3 ± 5.3 mg
same,Uterine wet weight (mg ± S.D.),"[1]; Table 2, estrone 1.0 µg/kg daily subcutaneous + Compound B 50 mg/kg daily oral",58.2 ± 2.6 mg
same,Uterine wet weight (mg ± S.D.),"[1]; Table 2, estrone 1.0 µg/kg daily subcutaneous + Compound B 200 mg/kg daily oral",71.5 ± 7.4^+ mg
same,deaths and toxic symptoms (acute toxicity),[2]; [4],None of the groups showed deaths nor toxic symptoms
same,deaths and toxic symptoms (acute toxicity),[2]; [5],None of the groups showed deaths nor toxic symptoms
same,deaths and toxic symptoms (acute toxicity),[3]; [4],None of the groups showed deaths nor toxic symptoms
same,deaths and toxic symptoms (acute toxicity),[3]; [5],None of the groups showed deaths nor toxic symptoms
"C[C@]12CC[C@@H]3c4ccc(O)cc4CC[C@H]3[C@@H]1CCC2=O [estrone, reference compound]",Uterine wet weight (mg ± S.D.),"[1]; Table 1, estrone 1.0 µg/kg daily subcutaneous alone (Compound A 0)",52.6 ± 2.3 mg
same,Uterine wet weight (mg ± S.D.),"[1]; Table 2, estrone 0.5 µg/kg daily subcutaneous alone (Compound B 0)",36.3 ± 1.9 mg
same,Uterine wet weight (mg ± S.D.),"[1]; Table 2, estrone 1.0 µg/kg daily subcutaneous alone (Compound B 0)",51.9 ± 4.2 mg
